Where a name gives a salt, the structure may show the parent alone.
How the values were obtained:
Assay type in all cases: in vivo
[1] = tested on: Mais LL (Liberty-Link-Mais, maize tolerant or resistant to glufosinate-ammonium); assay: Field trial, damage to transgenic maize (tolerance by crop plants); settings: for Mais LL: application 3-leaf stage
Description: (§1) Transgenic maize plants with a resistance to one or more herbicides (A) together with typical weed plants were grown in the open on 2×5 m plots under natural field conditions; alternatively, weed infestation occurred naturally when the maize plants were grown.
The damage to, and the development of, all aerial parts of the plants was recorded.
Abbreviations generally used in the tables: • g of a.s./ha=gram of active substance (100% active substance) per hectare • E^A=Total of the herbicidal effects of the individual applications • E^C Colby's expected value (cf. scoring in Table 1) • “Mais LL”=®Liberty-Link-Mais, maize which is tolerant or resistant to glufosinate-ammonium, […]

[2] = tested on: Panicum dichotomiflorum; assay: Field trial with maize, herbicidal action; settings: application 5-6-leaf stage, scoring 11 days after application
Description: as §1
(§2) […] The damage to, and the development of, all aerial parts of the plants was recorded. Scoring was done on the basis of a percentage sale (100% action=all plants destroyed; 50% action=50% of the plants and green parts of the plants destroyed; 0% action=no recognizable effect=like control plot. The mean of the score values of in each case 4 plots was calculated.

[3] = tested on: Portulaca oleracea; assay: Field trial with maize, herbicidal action
Description: as §1, §2

[4] = tested on: Cassia obtusifolia; assay: Field trial with maize, herbicidal action; settings: 400 g of a.s./ha; application 3-leaf stage; scoring 21 days after application
Description: as §1, §2

[5] = tested on: Euphorbia heterophylla; assay: Field trial with maize, herbicidal action; settings: for Herbicidal action (%) against Euphorbia heterophylla: application 6-leaf stage, scoring 44 days after application; for Herbicidal action (%) against EPHHL: application 4-leaf stage, scoring 6 weeks after application
Description: as §1, §2

[6] = tested on: AMARE; assay: Field trial with maize, herbicidal action; settings: application 2-4-leaf stage, scoring 3 weeks after application
Description: as §1, §2

[7] = tested on: Echinochloa crus-galli; assay: Field trial with maize, herbicidal action
Description: as §1, §2

[8] = tested on: Lolium multiflorum; assay: Field trial with maize, herbicidal action; settings: application 2- to 4-leaf stage, scoring 26 days after application
Description: as §1, §2

[9] = tested on: AGRRE; assay: Field trial with maize, herbicidal action; settings: application 2-4-leaf stage, scoring 3 weeks after application
Description: as §1, §2

[10] = tested on: Galium aparine; assay: Field trial with maize, herbicidal action; settings: application 3- to 4-leaf stage, scoring 24 days after application
Description: as §1, §2

[11] = tested on: Fagopyrum esculentum; assay: Field trial with maize, herbicidal action; settings: for Herbicidal action (%) against Fagopyrum esculentum: application 3- to 4-leaf stage, scoring 24 days after application; for Herbicidal action (%) against Fagopyron esculentum: application 2- to 4-leaf stage, scoring 26 days after application
Description: as §1, §2

[12] = tested on: SETVI; assay: Field trial with maize, herbicidal action; settings: application 2-4-leaf stage, scoring 3 weeks after application
Description: as §1, §2

[13] = tested on: Digitaria sanguinalis; assay: Field trial with maize, herbicidal action; settings: application 5-6-leaf stage, scoring 11 days after application
Description: as §1, §2

[14] = tested on: Sorghum bicolor; assay: Field trial with maize, herbicidal action; settings: application 4-leaf stage, scoring 28 days after post-emergence application
Description: as §1
(§3) 2, 4, 6 and 8 weeks after the application, the herbicidal activity of the active substances or active substance mixtures was scored visually with reference to the treated plots in comparison to untreated control plots. The damage to, and the development of, all aerial parts of the plants was recorded. Scoring was done on the basis of a percentage sale (100% action=all plants destroyed; 50% action=50% of the plants and green parts of the plants destroyed; 0% action=no recognizable effect=like control plot. The mean of the score values of in each case 4 plots was calculated.

[15] = tested on: Convolvulus arvensis; assay: Field trial with maize, herbicidal action; settings: application 3- to 4-leaf stage, scoring 28 days after application
Description: as §1, §3

[16] = tested on: Avena fatua; assay: Field trial with maize, herbicidal action; settings: application 2- to 4-leaf stage, scoring 28 days after application
Description: as §1, §3

[17] = tested on: Sinapis arvensis; assay: Field trial with maize, herbicidal action; settings: application 4- to 5-leaf stage, scoring 28 days after application
Description: as §1, §3

Compound: CP(=O)(O)CCC(N)C(=O)O (stereo not shown) [(A1.2), glufosinate-monoammonium salt]
- Mais LL ([1]; 100 g of a.s./ha, Table 11, head names no quantity): 0
- Damage to Mais LL in % ([1]; 100 g of a.s./ha, application 6-leaf stage): 0%
- Damage to Mais LL in % ([1]; 200 g of a.s./ha, application 2-4-leaf stage): 3%
- Mais LL ([1]; 200 g of a.s./ha, Table 11, head names no quantity): 0
- Mais LL ([1]; 200 g of a.s./ha, Table 14, head names no quantity): 0
- Damage to Mais LL in % ([1]; 200 g of a.s./ha, application 5-6-leaf stage): 2%
- Damage to Mais LL in % ([1]; 200 g of a.s./ha, application 6-leaf stage): 0%
- Damage to Mais LL in % ([1]; 300 g of a.s./ha, application 2-4-leaf stage): 2%
- Mais LL ([1]; 300 g of a.s./ha, Table 11, head names no quantity): 0
- Damage to Mais LL in % ([1]; 300 g of a.s./ha, application 4-leaf stage): 0%
- Damage to Mais LL in % ([1]; 400 g of a.s./ha, application 2-4-leaf stage): 5%
- Mais LL ([1]; 400 g of a.s./ha, Table 14, head names no quantity): 8
- Damage to Mais LL in % ([1]; 400 g of a.s./ha, application 5-6-leaf stage): 4%
- Damage to Mais LL in % ([1]; 400 g of a.s./ha, application 6-leaf stage): 0%
- Damage to Mais LL in % ([1]; 600 g of a.s./ha, application 2-4-leaf stage): 3%
- Mais LL ([1]; 600 g of a.s./ha, Table 11, head names no quantity): 0
- Damage to Mais LL in % ([1]; 600 g of a.s./ha, application 4-leaf stage): 0%
- Damage to Mais LL in % ([1]; 600 g of a.s./ha, application 5-6-leaf stage): 3%
- Damage to Mais LL in % ([1]; 1000 g of a.s./ha, application 2-4-leaf stage): 4%
- Herbicidal action (%) against Panicum dichotomiflorum ([2]; 200 g of a.s./ha): 8%
- Herbicidal action (%) against Panicum dichotomiflorum ([2]; 400 g of a.s./ha): 50%
- Herbicidal action (%) against Panicum dichotomiflorum ([2]; 600 g of a.s./ha): 92%
- Herbicidal action (%) against Portulaca oleracea ([3]; 250 g of a.s./ha, application 6-leaf stage, scoring 26 days after application): 35%
- Herbicidal action (%) against Portulaca oleracea ([3]; 300 g of a.s./ha, application 2- to 4-leaf stage, scoring 28 days after application): 43%
- Herbicidal action (%) against Portulaca oleracea ([3]; 450 g of a.s./ha, application 2- to 4-leaf stage, scoring 28 days after application): 50%
- Herbicidal action (%) against Portulaca oleracea ([3]; 500 g of a.s./ha, application 6-leaf stage, scoring 26 days after application): 60%
- Herbicidal action (%) against Cassia obtusifolia [4]: 60%
- Herbicidal action (%) against Euphorbia heterophylla ([5]; 100 g of a.s./ha): 37%
- Herbicidal action (%) against Euphorbia heterophylla ([5]; 200 g of a.s./ha): 50%
- Herbicidal action (%) against EPHHL ([5]; 300 g of a.s./ha): 45%
- Herbicidal action (%) against Euphorbia heterophylla ([5]; 400 g of a.s./ha): 60%
- Herbicidal action (%) against EPHHL ([5]; 600 g of a.s./ha): 55%
- Herbicidal action (%) against AMARE ([6]; 200 g of a.s./ha): 65%
- Herbicidal action (%) against AMARE ([6]; 300 g of a.s./ha): 84%
- Herbicidal action (%) against AMARE ([6]; 400 g of a.s./ha): 82%
- Herbicidal action (%) against AMARE ([6]; 600 g of a.s./ha): 87%
- Herbicidal action (%) against AMARE ([6]; 1000 g of a.s./ha): 85%
- Herbicidal action (%) against Echinochloa crus-galli ([7]; 125 g of a.s./ha, application 3- to 4-leaf stage, scoring 42 days after application): 45%
- Herbicidal action (%) against Echinochloa crus-galli ([7]; 125 g of a.s./ha, application 3-leaf stage, scoring 28 days after application): 25%
- Herbicidal action (%) against Echinochloa crus-galli ([7]; 200 g of a.s./ha, application 3-leaf stage, scoring 21 days after application): 35%
- Herbicidal action (%) against Echinochloa crus-galli ([7]; 250 g of a.s./ha, application 3- to 4-leaf stage, scoring 42 days after application): 65%
- Herbicidal action (%) against Echinochloa crus-galli ([7]; 250 g of a.s./ha, application 3-leaf stage, scoring 28 days after application): 45%
- Herbicidal action (%) against Echinochloa crus-galli ([7]; 400 g of a.s./ha, application 3-leaf stage, scoring 21 days after application): 68%
- Herbicidal action (%) against Echinochloa crus-galli ([7]; 500 g of a.s./ha, application 3- to 4-leaf stage, scoring 42 days after application): 78%
- Herbicidal action (%) against Echinochloa crus-galli ([7]; 500 g of a.s./ha, application 3-leaf stage, scoring 28 days after application): 74%
- Herbicidal action (%) against Lolium multiflorum ([8]; 200 g of a.s./ha): 0%
- Herbicidal action (%) against Lolium multiflorum ([8]; 330 g of a.s./ha): 15%
- Herbicidal action (%) against Lolium multiflorum ([8]; 500 g of a.s./ha): 78%
- Herbicidal action (%) against AGRRE ([9]; 200 g of a.s./ha): 0%
- Herbicidal action (%) against AGRRE ([9]; 300 g of a.s./ha): 0%
- Herbicidal action (%) against AGRRE ([9]; 400 g of a.s./ha): 11%
- Herbicidal action (%) against AGRRE ([9]; 600 g of a.s./ha): 15%
- Herbicidal action (%) against AGRRE ([9]; 1000 g of a.s./ha): 74%
- Herbicidal action (%) against Galium aparine ([10]; 125 g of a.s./ha): 30%
- Herbicidal action (%) against Galium aparine ([10]; 250 g of a.s./ha): 45%
- Herbicidal action (%) against Galium aparine ([10]; 500 g of a.s./ha): 65%
- Herbicidal action (%) against Fagopyrum esculentum ([11]; 125 g of a.s./ha): 10%
- Herbicidal action (%) against Fagopyron esculentum ([11]; 200 g of a.s./ha): 10%
- Herbicidal action (%) against Fagopyrum esculentum ([11]; 250 g of a.s./ha): 20%
- Herbicidal action (%) against Fagopyron esculentum ([11]; 330 g of a.s./ha): 20%
- Herbicidal action (%) against Fagopyron esculentum ([11]; 500 g of a.s./ha): 55%
- Herbicidal action (%) against Fagopyrum esculentum ([11]; 500 g of a.s./ha): 55%
- Herbicidal action (%) against SETVI ([12]; 200 g of a.s./ha): 72%
- Herbicidal action (%) against SETVI ([12]; 300 g of a.s./ha): 72%
- Herbicidal action (%) against SETVI ([12]; 400 g of a.s./ha): 69%
- Herbicidal action (%) against SETVI ([12]; 600 g of a.s./ha): 69%
- Herbicidal action (%) against SETVI ([12]; 1000 g of a.s./ha): 74%
- Herbicidal action (%) against Digitaria sanguinalis ([13]; 200 g of a.s./ha): 0%
- Herbicidal action (%) against Digitaria sanguinalis ([13]; 400 g of a.s./ha): 15%
- Herbicidal action (%) against Digitaria sanguinalis ([13]; 600 g of a.s./ha): 30%
- Herbicidal action (%) against Sorghum bicolor ([14]; 125 g of a.s./ha): 30%
- Herbicidal action (%) against Sorghum bicolor ([14]; 250 g of a.s./ha): 50%
- Herbicidal action (%) against Sorghum bicolor ([14]; 500 g of a.s./ha): 85%
- Herbicidal action (%) against Convolvulus arvensis ([15]; 200 g of a.s./ha): 0%
- Herbicidal action (%) against Convolvulus arvensis ([15]; 400 g of a.s./ha): 20%
- Herbicidal action (%) against Avena fatua ([16]; 300 g of a.s./ha): 48%
- Herbicidal action (%) against Avena fatua ([16]; 450 g of a.s./ha): 50%
- Herbicidal action (%) against Sinapis arvensis ([17]; 230 g of a.s./ha): 45%
- Herbicidal action (%) against Sinapis arvensis ([17]; 350 g of a.s./ha): 75%

— patent publication US8772199B2, “Herbicidal compositions for tolerant or resistant maize crops” (Bayer Intellectual Property GmbH, priority 1998, dated 2014)
